Laboratory results as given in patent US12350270B2, “Antimalarial agents” (Merck Sharp & Dohme LLC, priority 2019, dated 2025).

Each compound was assayed on parasites (ring stage, in human red blood cell culture) (assay: Parasite LDH growth assay (antiparasite potency, Parasite Assay)). Settings: 0.7% rings, 2% haematocrit, 72 hours at 37° C., LDH readout of parasite growth.
Assay type: cell-based, Plasmodium falciparum
Outline: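 Growth was read by an LDH assay after a freeze–thaw cycle (−80 °C overnight, 4 h thaw at RT). Before that, parasites grew with compound for 72 h at 37 °C under gassed, humidified conditions. The input was a ring-stage culture adjusted to 0.7% parasitemia and 2% haematocrit in serum (5%)/albumax (0.5%)-supplemented RPMI-Hepes.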

Structure (SMILES) | EC50 [nM]
CCC1(CC)CC(=O)N([C@H]2c3cc(C(=O)N[C@@H]4c5ccccc5C[C@H]4O)ccc3CC2OC)C(=N)N1 (stereo partly drawn) [Example 140B, (3S)-3-(4,4-diethyl-2-imino-6-oxo-hexahydropyrimidin-1-yl)-N-[(1R,2R)-2-hydroxyindan-1-yl]-2-methoxy-indane-5-carboxamide] | 1.7

Same assay, conditions: Plasmodium falciparum, Erythrocyte, 72 h, 0.7% rings, 2% haematocrit, 72 hours at 37° C., LDH readout of parasite growth

Structure (SMILES) | EC50 [nM]
CCC1(CC)CC(=O)N([C@H]2c3cc(C(=O)N[C@@H]4c5ccccc5C[C@H]4O)ccc3CC2OC)C(=N)N1 (stereo partly drawn) [Example 140A, (3S)-3-(4,4-diethyl-1-imino-6-oxo-hexahydroyrimidin-1-yl)-N-[(1R,2R)-2-hydroxyindan-1-yl]-2-methoxy-indane-5-carboxamide] | 1.4
CC[C@]1(C)CC(=O)N([C@@H]2CCOc3ccc(C(=O)N[C@@H]4c5ccccc5OC[C@H]4OC)cc32)C(=N)N1 [Example 141, (4R)-4-[(4R)-4-ethyl-2-imino-4-methyl-6-oxo-hexahydropyrimidin-1-yl]-N-[(3S,4R)-3-methoxychroman-4-yl]chromane-6-carboxamide] | 8.4
COC1COc2ccc(C(=O)N[C@@H]3c4ccccc4C[C@]3(C)O)cc2C1N1C(=N)NC(C)(C)CC1=O (stereo partly drawn) [Example 142, N-[(1R,2S)-2-hydroxy-2-methyl-indan-1-yl]-4-(2-imino-4,4-dimethyl-6-oxo-hexahydropyrimidin-1-yl)-3-methoxy-chromane-6-carboxamide] | 98.5
COC1COc2ccc(C(=O)N[C@@H]3c4ccccc4C[C@@]3(C)O)cc2C1N1C(=N)NC(C)(C)CC1=O (stereo partly drawn) [Example 143, N-[(1R,2R)-2-hydroxy-2-methyl-indan-1-yl]-4-(1-imino-4,4-dimethyl-6-oxo-hexahydropyrimidin-1-yl)-3-methoxy-chromane-6-carboxamide] | 178
CC1(C)CC(=O)N(C2c3cc(C(=O)N[C@H]4CC(C)(C)Oc5ccccc54)ccc3OCC2O)C(=N)N1 (stereo partly drawn) [Example 144, N-[(4S)-2,2-dimethylchroman-4-yl]-3-hydroxy-4-(2-imino-4,4-dimethyl-6-oxo-hexahydropyrimidin-1-yl)chromane-6-carboxamide] | 194
CC[C@]1(C)CC(=O)N(C2c3cc(C(=O)N[C@@H]4c5ccccc5C[C@H]4O)ccc3OCC2OC)C(=N)N1 (stereo partly drawn) [Example 145, 4-[(4R)-4-ethyl-2-imino-4-methyl-6-oxo-hexahydropyrimidin-1-yl]-N-[(1R,2R)-2-hydroxyindan-1-yl]-3-methoxy-chromane-6-carboxamide] | 40.8
COCC1(C)Oc2ccc(C(=O)N[C@@H]3c4ccccc4C[C@H]3O)cc2C1N1C(=N)NC(C)(C)CC1=O (stereo partly drawn) [Example 146, N-[(1R,2R)-2-hydroxyindan-1-yl]-3-(2-imino-4,4-dimethyl-6-oxo-hexahydropyrimidin-1-yl)-2-(methoxymethyl)-2-methyl-3H-benzofuran-5-carboxamide] | 35.5
CCC1(CC)CC(=O)N([C@@H]2CCOc3ccc(C(=O)N[C@H]4c5cc(F)ccc5C[C@@H]4O)cc32)C(=N)N1 [Example 147, (4R)-4-(4,4-diethyl-2-imino-6-oxo-hexahydropyrimidin-1-yl)-N-[(1S,2S)-6-fluoro-2-hydroxy-indan-1-yl]chromane-6-carboxamide] | 160
CCC1(CC)CC(=O)N([C@@H]2CCOc3ccc(C(=O)N[C@@H]4c5cc(F)ccc5C[C@H]4O)cc32)C(=N)N1 [Example 148, (4R)-4-(4,4-diethyl-2-imino-6-oxo-hexahydropyrimidin-1-yl)-N-[(1R,2R)-6-fluoro-2-hydroxy-indan-1-yl]chromane-6-carboxamide] | 2.7
CC1(C)CC(=O)N([C@@H]2CCc3ccc(C(=O)N[C@@H]4c5cc(F)ccc5OC(C)(C)[C@H]4O)cc32)C(=N)N1 [Example 149, (3R)-N-[(3S,4R)-6-fluoro-3-hydroxy-2,2-dimethyl-chroman-4-yl]-3-(2-imino-4,4-dimethyl-6-oxo-hexahydropyrimidin-1-yl)indane-5-carboxamide] | 1.1
CCC1(CC)CC(=O)N([C@@H]2CCOc3ccc(C(=O)NC(CO)c4ccccc4OC)cc32)C(=N)N1 (stereo partly drawn) [Example 150, (4R)-4-(4,4-diethyl-2-imino-6-oxo-hexahydropyrimidin-1-yl)-N-[2-hydroxy-1-(2-methoxyphenyl)ethyl]chromane-6-carboxamide] | 49
CC[C@]1(C)CC(=O)N([C@@H]2CCOc3ccc(C(=O)NC4c5cc(F)ccc5OCC4O)cc32)C(=N)N1 (stereo partly drawn) [Example 151, (4R)-4-[(4R)-4-ethyl-2-imino-4-methyl-6-oxo-hexahydropyrimidin-1-yl]-N-(6-fluoro-3-hydroxy-chroman-4-yl)chromane-6-carboxamide] | 5.4
CCC1(CC)CC(=O)N([C@@H]2CCOc3ccc(C(=O)NC4c5ccccc5CC4(F)F)cc32)C(=N)N1 (stereo partly drawn) [Example 152, (4R)-4-(4,4-diethyl-2-imino-6-oxo-hexahydropyrimidin-1-yl)-N-(2,2-difluoroindan-1-yl)chromane-6-carboxamide] | 7.7
CC1(C)CC(=O)N([C@@H]2CCOc3ccc(C(=O)N[C@@H]4c5cc(Cl)ccc5OC[C@H]4O)cc32)C(=N)N1 [Example 153, (4R)-N-[(3S,4R)-6-chloro-3-hydroxy-chroman-4-yl]-4-(2-imino-4,4-dimethyl-6-oxo-hexahydropyrimidin-1-yl)chromane-6-carboxamide] | 11.5
CCC1(CC)CC(=O)N([C@@H]2CCOc3ccc(C(=O)N[C@@H]4c5ccccc5C5(CC5)[C@H]4O)cc32)C(=N)N1 [Example 154, (4R)-4-(4,4-diethyl-2-imino-6-oxo-hexahydropyrimidin-1-yl)-N-[(1′R,2′R)-2′-hydroxyspiro[cyclopropane-1,3′-indane]-1′-yl]chromane-6-carboxamide] | 0.7
CCC1(CC)CC(=O)N([C@@H]2CCOc3ccc(C(=O)N[C@H]4c5ccccc5C5(CC5)[C@@H]4O)cc32)C(=N)N1 [Example 155, (4R)-4-(4,4-diethyl-2-imino-6-oxo-hexahydropyrimidin-1-yl)-N-[(1′S,2′S)-2′-hydroxyspiro[cyclopropane-1,3′-indane]-1′-yl]chromane-6-carboxamide] | 82.5
CCC1(CC)CC(=O)N([C@@H]2CCCc3ccc(C(=O)N[C@H]4CC(C)(C)Oc5ccccc54)cc32)C(=N)N1 [Example 156, (4R)-4-(4,4-diethyl-2-imino-6-oxo-hexahydropyrimidin-1-yl)-N-[(4S)-2,2-dimethylchroman-4-yl]tetralin-6-carboxamide] | 1.1
CCC1(CC)CC(=O)N([C@@H]2C[C@@H](OC)c3ccc(C(=O)N[C@@H]4c5ccccc5C[C@@]4(C)O)cc32)C(=N)N1 [Example 157, (1R,3R)-3-(4,4-diethyl-2-imino-6-oxo-hexahydropyrimidin-1-yl)-N-[(1R,2R)-2-hydroxy-2-methyl-indan-1-yl]-1-methoxy-indane-5-carboxamide] | 19.9
CCC1(CC)CC(=O)N([C@@H]2C[C@H](OC)c3ccc(C(=O)N[C@@H]4c5ccccc5C[C@@]4(C)O)cc32)C(=N)N1 [Example 158, (1S,3R)-3-(4,4-diethyl-2-imino-6-oxo-hexahydropyrimidin-1-yl)-N-[(1R,2R)-2-hydroxy-2-methyl-indan-1-yl]-1-methoxy-indane-5-carboxamide] | 0.9
CCC1(CC)CC(=O)N([C@@H]2CCc3ccc(C(=O)N[C@@H]4c5ccccc5OC(C)(C)[C@H]4O)cc32)C(=N)N1 [Example 159, (3R)-3-(4,4-diethyl-2-imino-6-oxo-hexahydropyrimidin-1-yl)-N-[(3S,4R)-3-hydroxy-2,2-dimethyl-chroman-4-yl]indane-5-carboxamide] | 0.5
